Values joined by “and” are separate entries in the source; they are usually repeats but may differ in a detail not shown here. Identical values can stand only once. Like-named read-outs stand apart in the source and are kept apart here.
Key:
[1] = tested on: squamous cell human carcinoma cell line (SCC A431); test: MTT cell proliferation assay, 72 hours, dark or blue light, squamous cell carcinoma; type: cell-based; conditions: for inhibition at 0.005 µM / inhibition at 0.02 µM / inhibition at 0.08 µM / inhibition at 0.32 µM / inhibition at 1.28 µM / inhibition at 0.04 µM / inhibition at 0.01 µM: Homo sapiens, read-out: growth inhibition relative to untreated control
Description: The effects of combined treatment with KX01, a vitamin D derivative, and/or blue/UV light exposure were characterized using a cell proliferation assay. Cell proliferation was assessed by using an MTT assay. Cells were seeded in 96-well plate (3,000-5,000 cells per well) and treated with test compounds at varying concentrations (e.g. KX01: 5 to 80 nM; calcipotriol 5 to 1,280 nM) for 72 hours, either in the dark or exposed to blue light irradiation (for 2, 4, or 6 hours). To each well, 10 μl of 3-(4,5-dimethylthiazol-2-yl)-2,5-diphenyltetrazolium bromide (MTT) (RPI Corporation™) solution (5 mg/ml in PBS) was added and incubated at 37° C. for 3 hours. Next, 100 μl of 20% SDS was added to each well. After overnight incubation at 37° C., the absorbance in each well was measured at 570 nm in a microplate reader (Molecular Devices™). The cell growth curve and GI50s were calculate using GraphPad Prism™ 5 software. Similar studies were performed using a squamous cell carcinoma cell line (SCC A431). Tables 19 and 20 show the results of cell growth inhibition studies (expressed as a percentage relative to control cell growth) for treatment with either KX01 or calcipotriol in combination with exposure to blue light. […] The percentage of growth inhibition relative to untreated control is shown. Tables 21 to 24 show the effects of combined treatment with KX01, calcipotriol, and exposure to blue light at 0 hours, 2 hours, 4 hours, and 6 hours of light exposure (respectively) on human squamous cell carcinoma cells. Values are expressed as the percentage of growth inhibition relative to cells grown under control conditions (0 hours blue light, [KX01]=0, [calcipotriol]=0). The percentage of growth inhibition relative to an untreated control is shown. […] Results are shown below in Tables 31 and 32, which show results for KX01 and calcipotriol (respectively). Values are expressed as the percentage of growth inhibition relative to cells grown under control conditions (0 hours blue light, [KX01]=0, [calcipotriol]=0). […] Results are shown below in Tables 33 to Table 36, which show results from 0, 2, 4, and 6 hours of blue light exposure (respectively). Values are expressed as the percentage of growth inhibition relative to cells grown under control conditions (0 hours blue light, [KX01]=0, [calcipotriol]=0).

[2] = tested on: human keratinocyte cell line; test: combinatorial dose response surface study of cell viability (PSI), KX01 and calcipotriol; type: cell-based; conditions: model estimate
Source text: FIG. 6: Dose response surface of cell viability versus calcipotriol concentration versus KX01 concentration. Synergistic combinations of calcipotriol and KX01 are below the surface of additivity (indicating enhanced inhibition of growth), and antagonistic combinations are above the surface of additivity (indicative of reduced inhibition of growth). Individual dose response curves for KX01 and calcipotriol as determined above can be used to generate dose response surfaces representative of the additive effects of these compounds on keratinocyte growth. […] A PSI value of 1 corresponds to an additive effect. A PSI value of less than 1 indicates a synergistic effect, and a PSI value of greater than 1 indicates an antagonistic effect. Cell viability was measured in a number of experiments. In Experiment 1, the concentrations of calcipotriol were: 0, 3, 9, 27, 81, and 243 nM, and the concentrations of KX01 were: 0, 5, 10, 20, 40, 60, 80, and 160 nM. In Experiment 2, the concentrations of calcipotriol were: 0, 5, 10, 20, 40, 80, 160, 320, and 1280 nM, and the concentrations of KX01 were: 1, 3, 9, 27, and 81 nM. […] It is notable that unexpected synergy is observed across a range of concentrations and combinations. Tables 7, 8, and 9 show the results for determination of individual IC50 and maximum inhibitory concentration values for KX01 and calcipotriol, as well as the PSI value for the drug combination. […]

[3] = tested on: cell proliferation/growth; test: combined treatment with KX01 and tazarotene, inhibition of cell proliferation/growth; type: cell-based
Source text: Examples of suitable retinoids include retinol, retinal, retinoic acid isotretinoin, alitreninoin, etretinate, acitretin, adapalene, bexarotene, and/or tazarotene. FIGS. 7 and 8 show the effects of tazarotene on growth of cells in culture, including CCD-1106 KERTr keratinocytes (FIG. 7) and A431 cells (epidermoid cells obtained from a human squamous cell carcinoma, FIG. 8).

SRC-kinase = SRC-kinase (Homo sapiens, UniProt P12931); conditions: cited from earlier work
apoptosis by G2/M arrest = conditions: cited from earlier work
tubulin polymerization = conditions: cited from earlier work

Chain of SRC-kinase (P12931 whole entry): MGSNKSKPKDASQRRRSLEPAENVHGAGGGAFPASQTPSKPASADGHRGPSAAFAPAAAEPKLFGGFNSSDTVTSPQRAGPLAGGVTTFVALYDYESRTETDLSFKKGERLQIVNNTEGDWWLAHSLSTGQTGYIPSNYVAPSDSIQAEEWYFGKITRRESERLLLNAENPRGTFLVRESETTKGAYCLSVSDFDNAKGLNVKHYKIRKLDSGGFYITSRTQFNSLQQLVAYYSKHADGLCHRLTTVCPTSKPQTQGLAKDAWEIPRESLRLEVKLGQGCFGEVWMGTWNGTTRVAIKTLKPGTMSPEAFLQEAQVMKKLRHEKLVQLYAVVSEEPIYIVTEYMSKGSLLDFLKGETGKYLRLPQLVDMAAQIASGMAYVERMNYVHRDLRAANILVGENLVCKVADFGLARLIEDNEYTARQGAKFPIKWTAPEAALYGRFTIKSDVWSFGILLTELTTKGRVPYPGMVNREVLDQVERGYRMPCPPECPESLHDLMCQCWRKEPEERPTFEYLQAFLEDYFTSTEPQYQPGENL

C=C1/C(=C\C=C2/CCC[C@]3(C)[C@@H]([C@H](C)/C=C/[C@@H](O)C4CC4)CC[C@@H]23)C[C@@H](O)C[C@@H]1O [Calcipotriol, calcipotriol]
inhibition at 0.005 µM ([1]; A-431, 0 h, calcipotriol 5 nM, blue light 0 h): 19%
inhibition at 0.02 µM ([1]; A-431, 0 h, calcipotriol 20 nM, blue light 0 h): 30%
inhibition at 0.08 µM ([1]; A-431, 0 h, calcipotriol 80 nM, blue light 0 h): 40%
inhibition at 0.32 µM ([1]; A-431, 0 h, calcipotriol 320 nM, blue light 0 h): 41%
inhibition at 1.28 µM ([1]; A-431, 0 h, calcipotriol 1,280 nM, blue light 0 h): 36%
inhibition at 0.005 µM ([1]; A-431, 2 h, calcipotriol 5 nM, blue light 2 h): 26%
inhibition at 0.02 µM ([1]; A-431, 2 h, calcipotriol 20 nM, blue light 2 h): 36%
inhibition at 0.08 µM ([1]; A-431, 2 h, calcipotriol 80 nM, blue light 2 h): 41%
inhibition at 0.32 µM ([1]; A-431, 2 h, calcipotriol 320 nM, blue light 2 h): 35%
inhibition at 1.28 µM ([1]; A-431, 2 h, calcipotriol 1,280 nM, blue light 2 h): 38%
inhibition at 0.005 µM ([1]; A-431, 4 h, calcipotriol 5 nM, blue light 4 h): 49%
inhibition at 0.02 µM ([1]; A-431, 4 h, calcipotriol 20 nM, blue light 4 h): 44%
inhibition at 0.08 µM ([1]; A-431, 4 h, calcipotriol 80 nM, blue light 4 h): 47%
inhibition at 0.32 µM ([1]; A-431, 4 h, calcipotriol 320 nM, blue light 4 h): 49%
inhibition at 1.28 µM ([1]; A-431, 4 h, calcipotriol 1,280 nM, blue light 4 h): 43%
inhibition at 0.005 µM ([1]; A-431, 6 h, calcipotriol 5 nM, blue light 6 h): 67%
inhibition at 0.02 µM ([1]; A-431, 6 h, calcipotriol 20 nM, blue light 6 h): 69%
inhibition at 0.08 µM ([1]; A-431, 6 h, calcipotriol 80 nM, blue light 6 h): 67%
inhibition at 0.32 µM ([1]; A-431, 6 h, calcipotriol 320 nM, blue light 6 h): 67%
inhibition at 1.28 µM ([1]; A-431, 6 h, calcipotriol 1,280 nM, blue light 6 h): 68%
growth inhibition relative to untreated control ([1]; calcipotriol 5 nM, blue light 0 h): 14%
growth inhibition relative to untreated control ([1]; calcipotriol 5 nM, blue light 2 h): 27%
growth inhibition relative to untreated control ([1]; calcipotriol 5 nM, blue light 4 h): 50%
growth inhibition relative to untreated control ([1]; calcipotriol 5 nM, blue light 6 h): 62%
growth inhibition relative to untreated control ([1]; calcipotriol 20 nM, blue light 2 h): 39%
growth inhibition relative to untreated control ([1]; calcipotriol 20 nM, blue light 4 h): 48%
growth inhibition relative to untreated control ([1]; calcipotriol 20 nM, blue light 6 h): 63%
growth inhibition relative to untreated control ([1]; calcipotriol 80 nM, blue light 0 h): 27%
growth inhibition relative to untreated control ([1]; calcipotriol 80 nM, blue light 4 h): 50%
growth inhibition relative to untreated control ([1]; calcipotriol 80 nM, blue light 6 h): 61%
growth inhibition relative to untreated control ([1]; calcipotriol 320 nM, blue light 0 h): 31%
growth inhibition relative to untreated control ([1]; calcipotriol 320 nM, blue light 2 h): 37%
growth inhibition relative to untreated control ([1]; calcipotriol 320 nM, blue light 4 h): 51%
growth inhibition relative to untreated control ([1]; calcipotriol 320 nM, blue light 6 h): 60%
growth inhibition relative to untreated control ([1]; calcipotriol 1,280 nM, blue light 0 h): 28%
growth inhibition relative to untreated control ([1]; calcipotriol 1,280 nM, blue light 2 h): 39%
growth inhibition relative to untreated control ([1]; calcipotriol 1,280 nM, blue light 4 h): 48%
growth inhibition relative to untreated control ([1]; calcipotriol 1,280 nM, blue light 6 h): 58% and 57%
IC50 ([2]; Homo sapiens, Keratinocyte): 112 nM
IC50 [2]: 59.3 nM
Max Inhibition [2]: 0.474 and 0.36 and 0.439

O=C(Cc1ccc(-c2ccc(OCCN3CCOCC3)cc2)cn1)NCc1ccccc1 [KX01, N-benzyl-2-(5-{4-[2-(morpholine-4-yl)ethoxy]phenyl}pyridine-2-yl)acetamide]
H [3]: 3.3
IC50 [3]: 45 nM
Imax [3]: 0.92
SRC-kinase inhibition (SRC-kinase): inhibit SRC-kinase
inhibition at 0.02 µM ([1]; A-431, 0 h, KX01 20 nM, blue light 0 h): 99%
inhibition at 0.04 µM ([1]; A-431, 0 h, KX01 40 nM, blue light 0 h): 99%
inhibition at 0.08 µM ([1]; A-431, 0 h, KX01 80 nM, blue light 0 h): 99%
inhibition at 0.01 µM ([1]; A-431, 2 h, KX01 10 nM, blue light 2 h): 40%
inhibition at 0.02 µM ([1]; A-431, 2 h, KX01 20 nM, blue light 2 h): 97%
inhibition at 0.04 µM ([1]; A-431, 2 h, KX01 40 nM, blue light 2 h): 97%
inhibition at 0.08 µM ([1]; A-431, 2 h, KX01 80 nM, blue light 2 h): 95%
inhibition at 0.01 µM ([1]; A-431, 4 h, KX01 10 nM, blue light 4 h): 66%
inhibition at 0.02 µM ([1]; A-431, 4 h, KX01 20 nM, blue light 4 h): 76%
inhibition at 0.04 µM ([1]; A-431, 4 h, KX01 40 nM, blue light 4 h): 73%
inhibition at 0.08 µM ([1]; A-431, 4 h, KX01 80 nM, blue light 4 h): 75%
inhibition at 0.01 µM ([1]; A-431, 6 h, KX01 10 nM, blue light 6 h): 79%
inhibition at 0.02 µM ([1]; A-431, 6 h, KX01 20 nM, blue light 6 h): 81%
inhibition at 0.04 µM ([1]; A-431, 6 h, KX01 40 nM, blue light 6 h): 81%
inhibition at 0.08 µM ([1]; A-431, 6 h, KX01 80 nM, blue light 6 h): 82%
growth inhibition relative to untreated control ([1]; KX01 10 nM, blue light 0 h): 0% and 11%
growth inhibition relative to untreated control ([1]; KX01 10 nM, blue light 2 h): 44%
growth inhibition relative to untreated control ([1]; KX01 10 nM, blue light 6 h): 77%
growth inhibition relative to untreated control ([1]; KX01 20 nM, blue light 0 h): 80%
growth inhibition relative to untreated control ([1]; KX01 20 nM, blue light 2 h): 83%
growth inhibition relative to untreated control ([1]; KX01 20 nM, blue light 4 h): 69% and 74%
growth inhibition relative to untreated control ([1]; KX01 20 nM, blue light 6 h): 83%
growth inhibition relative to untreated control ([1]; KX01 40 nM, blue light 0 h): 100%
growth inhibition relative to untreated control ([1]; KX01 40 nM, blue light 4 h): 80%
growth inhibition relative to untreated control ([1]; KX01 40 nM, blue light 6 h): 86%
growth inhibition relative to untreated control ([1]; KX01 80 nM, blue light 2 h): 98%
growth inhibition relative to untreated control ([1]; KX01 80 nM, blue light 4 h): 84%
growth inhibition relative to untreated control ([1]; KX01 80 nM, blue light 6 h): 88%
effect of blue light exposure with the drug on cell growth inhibition ([1]; for example at 10 nM KX01): Synergistic effects
induction of apoptosis (apoptosis by G2/M arrest): induces apoptosis by G2/M arrest
IC50 ([2]; Homo sapiens, Keratinocyte): 41.3 nM
IC50 [2]: 32.8 nM and 47 nM
Max Inhibition [2]: 0.856 and 0.77 and 0.741
inhibition of tubulin polymerization (tubulin polymerization): inhibits tubulin polymerization

Source: patent publication US11752156B2, “Compositions and methods for treating hyperproliferative skin disorders” (Athenex HK Innovative Limited, priority 2018, dated 2023)
